Assay results taken from patent publication US6953810B2, “Nicotinamide biaryl derivatives useful as inhibitors of PDE4 isozymes” (Pfizer Inc, priority 2001, dated 2005).
“Also recorded” adds a separate entry of the source. One block for each compound: values may come before it.

Tests used:
[1] = test system: human peripheral blood mononuclear cells (HPBM); conditions: normal patients and subjects with atopic dermatitis; cited from earlier work
[2] = test system: lipopolysaccharide-induced mesenteric blood flow fall; conditions: dog, in vivo; cited from earlier work
bone marrow culture = conditions: cited from earlier work
guinea-pig trachea = conditions: cited from earlier work
[3] = in vivo; cited from earlier work
[4] = test system: isolated pulmonary artery rings; conditions: cited from earlier work
[5] = test system: experimental allergic encephalomyelitis; conditions: marmoset; cited from earlier work
[6] = test system: collagen II induced arthritis; conditions: 3 mg/kg twice daily when arthritis was apparent; cited from earlier work
[7] = test system: chronic relapsing experimental allergic encephalomyelitis; conditions: SJL mice; cited from earlier work
tumor cells = conditions: at micromolar concentrations; cited from earlier work
[8] = test system: airway hyper-responsiveness (AHR); conditions: guinea-pig; PAF-, ozone- or ACh-induced; cited from earlier work
[9] = test system: antigen-induced bronchoconstriction; conditions: guinea-pig; cited from earlier work
[10] = test system: lung, BAL, airway and pleural eosinophilia; conditions: guinea-pig; cited from earlier work
rhinorrhea = conditions: in vivo; cited from earlier work
[11] = test system: psoriatic epidermal slices; conditions: psoriatic and keratomed psoriatic epidermal slices; cited from earlier work
psoriatic lesions = conditions: two double-blind studies; cited from earlier work
[12] = test system: antigen-induced lung eosinophilia; conditions: rat; cited from earlier work
[13] = test system: late reactions to inhaled allergen; conditions: oral 15 and 30 mg, 9.5 days; cited from earlier work
[14] = test system: catalytic site (Sc) of PDE4; conditions: cited from earlier work
patients = conditions: oral 5, 10, and 15 mg b.i.d., week 2; cited from earlier work
[15] = test system: rheumatoid arthritis patients; parameters: dose or concentration left out as unconfirmed; conditions: 35 patients; cited from earlier work
SCW-induced arthritis = conditions: in vivo; cited from earlier work
[16] = test system: ex vivo TNF release and lymphocyte proliferation; conditions: oral dose of 300 mg; cited from earlier work

Compound: CCCCn1c(=O)c2c(ncn2CC(C)=O)n(CCCC)c1=O [denbufylline]
inhibition of proliferation of HPBM [1]: concentration-related inhibition | potency relative to pentoxifylline in inhibiting lipopolysaccharide-induced mesenteric blood flow fall [2]: 100 fold | mineralized nodules in bone marrow culture (bone marrow culture): increase in the number of mineralized nodules

Compound: CC1CC1c1nc(NC2CC2)nc(N2CCOCC2)n1 (stereo not drawn) [Formula (0.0.57)]
relaxation in a guinea-pig trachea model (guinea-pig trachea): potent relaxant agents

Compound: Nc1nc2c([nH]1)c(=O)n(CC1CC1)c(=O)n2CC1CC1 [BRL-61,063, cipamfylline]
emesis, nausea, vomiting [3]: adverse events of nausea and vomiting

Compound: Cc1[nH]c(=O)c(C#N)cc1-c1ccncc1 [milrinone]
effect on relaxant activities of isoproterenol and forskolin [4]: same effect

melting point: 200 to 202 °C
Compound: N#Cc1cccc(Oc2ncccc2C(=O)NCc2ccc(-c3cccc(C(=O)O)c3)cc2F)c1 [Example 4, 4′-[[[2-[3-Cyano-phenoxy]-pyridine-3-carbonyl]-amino]-methyl]-biphenyl-3′-fluoro-biphenyl-3-carboxylic acid]

Compound: COc1ccc(C2CNC(=O)C2)cc1OC1CCCC1 (stereo not drawn) [rolipram]
inhibition of proliferation of HPBM [1]: concentration-related inhibition | clinical signs of EAE [5]: suppress the appearance of clinical signs | development of disease [6]: progression of severity was halted | clinical signs and pathological changes of chronic relapsing EAE [7]: ameliorates clinical signs and pathological changes | effect on relaxant activities of isoproterenol and forskolin [4]: potentiates the relaxant activities of isoproterenol and forskolin

melting point: 190 to 192 °C
Compound: O=C(O)c1cccc(-c2ccc(CNC(=O)c3cccnc3Oc3ccc4c(c3)OCO4)c(F)c2)c1 [Example 3]

Compound: Clc1nc2c(N3CCCC3)nc(N3CCNCC3)nc2nc1NCc1ccccc1 [Formula (0.0.55)]
inhibition of growth of tumor cells (tumor cells): inhibit the growth of tumor cells

Compound: O=c1c2c(ncn2Cc2cccnc2)c2cccnc2n1-c1ccccc1 [KF19514]
inhibition of airway hyper-responsiveness (AHR) [8]: activity | inhibition of antigen-induced bronchoconstriction [9]: activity | inhibition of antigen-induced lung, BAL or airway eosinophilia [10]: activity

Compound: CCCC1C(=O)C2=C(C(CC)=NC2C)c2nc(OC)ccc21 [Example D-22888]
rhinorrhea in the antigen-challenged pig (rhinorrhea): inhibit rhinorrhea

Compound: O=S1(=O)CCN(c2nc(NC3CC3)nc(C3CC3)n2)C1 [Formula (0.0.56)]
relaxation in a guinea-pig trachea model (guinea-pig trachea): potent relaxant agents

Compound: COc1ccc(CC2CNC(=O)N2)cc1OC1CCCC1 (stereo not drawn) [Ro 20-1724]
elevation of cAMP concentrations over controls [11]: very marked elevation | psoriatic lesions versus vehicle (psoriatic lesions): improve psoriatic lesions

Compound: O=c1c2cccnc2n(-c2cccc([N+](=O)[O-])c2)c(=O)n1Cc1ccncc1 [RS-23,544]
emesis, nausea, vomiting [3]: elicit emesis

Compound: Cc1cc2c3c(c1)C(c1ccccc1)=N[C@@H](NC(=O)c1ccncc1)C(=O)N3CC2 [CI-1018]
oral potency ED50 [12]: 5 mg/kg

Compound: COc1ccc([C@H](Cc2ccncc2)c2ccccc2)cc1OC1CCCC1 [CDP840]
late reactions / late-phase response to inhaled allergen [13]: suppression; also recorded: significant inhibition | potency at the Sc compared with SB-207,499 [14]: significantly higher potency | emesis, nausea, vomiting [3]: without any adverse events of nausea or headache

Compound: COc1ccc(C(=O)Nc2c(Cl)cncc2Cl)cc1OC1CCCC1 [RP-73,401, piclamilast]
inhibition of airway hyper-responsiveness (AHR) [8]: active | emesis, nausea, vomiting [3]: elicit emesis | inhibition of IL-5 induced pleural eosinophila [10]: active | inhibition of antigen-induced lung, BAL or airway eosinophilia [10]: active

Compound: O=c1c2[nH]cnc2c2cccnc2n1-c1ccccc1 [KF17625]
inhibition of airway hyper-responsiveness (AHR) [8]: activity | inhibition of antigen-induced bronchoconstriction [9]: activity | inhibition of antigen-induced lung, BAL or airway eosinophilia [10]: activity

Compound: COc1ccc([C@]2(C#N)CC[C@@H](C(=O)O)CC2)cc1OC1CCCC1 [SB-207,499]
trough FEV1 versus placebo (patients): significant increases

Compound: COc1ccc(C2CNC(=O)NC2)cc1O[C@H]1C[C@@H]2CC[C@H]1C2 [CP-80,633, atizoram]
emesis, nausea, vomiting [3]: elicit emesis

melting point: 184 to 186 °C
Compound: O=C(O)c1cccc(-c2ccc(CNC(=O)c3cccnc3Oc3ccc(F)cc3)cc2)c1 [Example 1, 4′-[[[2-[4-Fluorophenoxyl]-pyridine-3-carbonyl]-amino]-methyl]-biphenyl-3-carboxylic acid]

Compound: COc1ccc(C(=O)Nc2c(Cl)cncc2Cl)cc1OC1CCCC1 [RP73401]
clinical improvement with reduction in C-reactive protein and IL-6 serum levels [15]: positive trend towards clinical improvement | disease in SCW-induced arthritis (joint destruction, synovitis, fibrosis) (SCW-induced arthritis): significant amelioration of disease

Compound: CCNc1ncn(Cc2ccc(OC)c(OC3CCCC3)c2)c2nc(C(C)C)nc1-2 [Example V-11294A]
reduction of TNF levels and lymphocyte proliferation [16]: effective
